Experimental data as given in publication doi:10.1101/2023.10.03.560722, “Drug Discovery in Low Data Regimes: Leveraging a Computational Pipeline for the Discovery of Novel SARS-CoV-2 Nsp14-MTase Inhibitors” (bioRxiv, 2024).
Read-outs that look alike come from different tables or passages of the source. Where a SMILES comes first, the peptide text is derived from it. [ ]: non-standard residue; d: D form. The star is where a group is joined. Ac5c = NC1(C(=O)O)CCCC1; Cbz = O=C(OCc1ccccc1)*

Columns and labels:
SARS-CoV-2 nsp14 MTase [1] = target: T1, SARS-CoV-2 nsp14 MTase (Severe acute respiratory syndrome coronavirus 2, UniProt P0DTD1); experiment: biochemical; type: biochemical; settings: for nsp14 Inhibition % (100µM) Exp 1 / nsp14 Inhibition % (100µM) Exp 2 / inhibition at 100 µM: compound 100µM; for IC50: nsp14 MTase activity, high-throughput screening follow-up
SARS-CoV-2 nsp14 MTase [2] = target: T1, SARS-CoV-2 nsp14 MTase; settings: inhibition of nsp14 methyltransferase activity; cited from earlier work
nsp14 = nsp14 (Severe acute respiratory syndrome coronavirus 2, UniProt P0DTD1); experiment: surface plasmon resonance (SPR) binding to immobilized full-length biotinylated nsp14; parameters: species or system SARS-CoV-2
Protocol: For Surface Plasmon Resonance (SPR), the full-length biotinylated nsp14 was immobilized on the flow cell of a SA sensor chip in 1x HBS-EP buffer, achieving a response of 8000 RU. The assay was performed using the same buffer but with 2% DMSO added. Single-cycle kinetics were employed with a contact time of 60 seconds and a dissociation time of 120 seconds, at a flow rate of 75 µL/min. NSC620333 was tested at a concentration of 10 µM as the highest concentration, and a dilution factor of 0.25 was used to yield five different concentrations.

SARS-CoV-2 = type: cell-based; settings: Calu-3 cells, lung epithelial SARS-CoV-2 infection model

O=C(O)c1ccc(Nc2nc3ccccc3nc2C(=O)O)cc1 [NSC670682]
nsp14 Inhibition % (100µM) Exp 1 (SARS-CoV-2 nsp14 MTase [1]; replicate experiment 1): 50%
nsp14 Inhibition % (100µM) Exp 2 (SARS-CoV-2 nsp14 MTase [1]; replicate experiment 2): 54%

N#Cc1cn([C@@H]2O[C@H](CSCC[C@H](N)C(=O)O)C(O)[C@@H]2O)c2ncnc(N)c12 (some centres unmarked) [SS148]
IC50 (SARS-CoV-2 nsp14 MTase [2]): 70 ± 6 nM

Nc1ncnc2c1ncn2C1OC(C(=O)NCC(=O)O)C(O)C1O (centres unmarked) [NSC163444]
nsp14 Inhibition % (100µM) Exp 1 (SARS-CoV-2 nsp14 MTase [1]; replicate experiment 1): 9%
nsp14 Inhibition % (100µM) Exp 2 (SARS-CoV-2 nsp14 MTase [1]; replicate experiment 2): 5%

O=c1ccn(C2OC(C(O)CO)C(O)C2O)c(=O)[nH]1 (centres unmarked) [NSC613624]
nsp14 Inhibition % (100µM) Exp 1 (SARS-CoV-2 nsp14 MTase [1]; replicate experiment 1): 4%
nsp14 Inhibition % (100µM) Exp 2 (SARS-CoV-2 nsp14 MTase [1]; replicate experiment 2): −1%

OC1COC(n2cnc3c(=S)nc[nH]c32)C(O)C1O (centres unmarked) [NSC107661]
nsp14 Inhibition % (100µM) Exp 1 (SARS-CoV-2 nsp14 MTase [1]; replicate experiment 1): 18%
nsp14 Inhibition % (100µM) Exp 2 (SARS-CoV-2 nsp14 MTase [1]; replicate experiment 2): 7%

O=C(O)CNC(=O)C1(NC(=O)CNC(=O)OCc2ccccc2)CCCC1 [NSC80136] (Cbz-Gly-[Ac5c]-Gly-OH)
nsp14 Inhibition % (100µM) Exp 1 (SARS-CoV-2 nsp14 MTase [1]; replicate experiment 1): 13%
nsp14 Inhibition % (100µM) Exp 2 (SARS-CoV-2 nsp14 MTase [1]; replicate experiment 2): 2%

O=S(=O)(O)c1ccc(N=Nc2c(O)ccc3n[nH]nc23)cc1 [NSC400937]
nsp14 Inhibition % (100µM) Exp 1 (SARS-CoV-2 nsp14 MTase [1]; replicate experiment 1): 73%
nsp14 Inhibition % (100µM) Exp 2 (SARS-CoV-2 nsp14 MTase [1]; replicate experiment 2): 66%

NC(CSCCSCCSCC(N)C(=O)O)C(=O)O (centres unmarked) [NSC400718]
nsp14 Inhibition % (100µM) Exp 1 (SARS-CoV-2 nsp14 MTase [1]; replicate experiment 1): 89%
nsp14 Inhibition % (100µM) Exp 2 (SARS-CoV-2 nsp14 MTase [1]; replicate experiment 2): 88%
IC50 (SARS-CoV-2 nsp14 MTase [1]; read-out: IC50): 38 µM

OCCNc1ncnc2c1ncn2[C@@H]1O[C@H](CO)[C@@H](O)[C@H]1O [NSC54251]
nsp14 Inhibition % (100µM) Exp 1 (SARS-CoV-2 nsp14 MTase [1]; replicate experiment 1): 4%
nsp14 Inhibition % (100µM) Exp 2 (SARS-CoV-2 nsp14 MTase [1]; replicate experiment 2): −4%

NS(=O)(=O)c1ccc(NC2OCC(O)C(O)C2O)cc1 (centres unmarked) [NSC158437]
nsp14 Inhibition % (100µM) Exp 1 (SARS-CoV-2 nsp14 MTase [1]; replicate experiment 1): 5%
nsp14 Inhibition % (100µM) Exp 2 (SARS-CoV-2 nsp14 MTase [1]; replicate experiment 2): 1%

O=C(N/N=C/[C@H](O)[C@H]1OC(=O)[C@@H](O)[C@H]1O)c1ccncc1 [NSC27605]
nsp14 Inhibition % (100µM) Exp 1 (SARS-CoV-2 nsp14 MTase [1]; replicate experiment 1): 26%
nsp14 Inhibition % (100µM) Exp 2 (SARS-CoV-2 nsp14 MTase [1]; replicate experiment 2): 10%

O=C(O)/C=C\C(=O)NCC1CCC(CNC(=O)/C=C\C(=O)O)CC1 (centres unmarked) [NSC137050]
nsp14 Inhibition % (100µM) Exp 1 (SARS-CoV-2 nsp14 MTase [1]; replicate experiment 1): 6%
nsp14 Inhibition % (100µM) Exp 2 (SARS-CoV-2 nsp14 MTase [1]; replicate experiment 2): −1%

O=P(O)(O)OC[C@H]1O[C@@H](n2cnc3c(NCc4ccccc4)ncnc32)[C@H](O)[C@@H]1O [NSC255523]
nsp14 Inhibition % (100µM) Exp 1 (SARS-CoV-2 nsp14 MTase [1]; replicate experiment 1): 59%
nsp14 Inhibition % (100µM) Exp 2 (SARS-CoV-2 nsp14 MTase [1]; replicate experiment 2): 33%

OCC(O)C(O)C(O)C(O)c1nc2ccccc2s1 (centres unmarked) [NSC34443]
nsp14 Inhibition % (100µM) Exp 1 (SARS-CoV-2 nsp14 MTase [1]; replicate experiment 1): 86%
nsp14 Inhibition % (100µM) Exp 2 (SARS-CoV-2 nsp14 MTase [1]; replicate experiment 2): 81%
IC50 (SARS-CoV-2 nsp14 MTase [1]; read-out: IC50): 57 µM

O=C(O)CCC(=O)NCC1CCCC(CNC(=O)CCC(=O)O)C1 (centres unmarked) [NSC317609]
nsp14 Inhibition % (100µM) Exp 1 (SARS-CoV-2 nsp14 MTase [1]; replicate experiment 1): 7%
nsp14 Inhibition % (100µM) Exp 2 (SARS-CoV-2 nsp14 MTase [1]; replicate experiment 2): 1%

Cn1c(=O)c2c(ncn2CCCNCC(O)c2ccc(O)c(CO)c2)n(C)c1=O (centres unmarked) [NSC293892]
nsp14 Inhibition % (100µM) Exp 1 (SARS-CoV-2 nsp14 MTase [1]; replicate experiment 1): 15%
nsp14 Inhibition % (100µM) Exp 2 (SARS-CoV-2 nsp14 MTase [1]; replicate experiment 2): 3%

CC(C)=CCNc1ncnc2c1ncn2[C@@H]1O[C@H](COP(=O)(O)O)[C@@H](O)[C@H]1O [NSC268226]
nsp14 Inhibition % (100µM) Exp 1 (SARS-CoV-2 nsp14 MTase [1]; replicate experiment 1): 9%
nsp14 Inhibition % (100µM) Exp 2 (SARS-CoV-2 nsp14 MTase [1]; replicate experiment 2): 0%

O=c1cc(-c2ccc(O)cc2)oc2c(O)c(O)c(O)c(O)c12 [NSC76988]
direct binding to nsp14 (nsp14): no direct binding was detected
IC50 (SARS-CoV-2 nsp14 MTase [1]; IC50 (µM)): 6 µM
inhibition at 100 µM (SARS-CoV-2 nsp14 MTase [1]; replicate experiment 1, read-out: nsp14 Inhibition % (100µM) Exp 1): 100%
inhibition at 100 µM (SARS-CoV-2 nsp14 MTase [1]; replicate experiment 2, read-out: nsp14 Inhibition % (100µM) Exp 2): 99%
anti-SARS-CoV-2 activity (SARS-CoV-2): demonstrated anti-SARS-CoV-2 activity

Nc1nc2nn(-c3ccc(C(=O)NC(CCC(=O)O)C(=O)O)cc3)nc2c(=O)[nH]1 (centres unmarked) [NSC44037]
nsp14 Inhibition % (100µM) Exp 1 (SARS-CoV-2 nsp14 MTase [1]; replicate experiment 1): 15%
nsp14 Inhibition % (100µM) Exp 2 (SARS-CoV-2 nsp14 MTase [1]; replicate experiment 2): 9%

O=C(O)C(Cc1ccc(O)cc1)NC(c1ccccc1)P(=O)(O)O (centres unmarked) [NSC377438]
nsp14 Inhibition % (100µM) Exp 1 (SARS-CoV-2 nsp14 MTase [1]; replicate experiment 1): 8%
nsp14 Inhibition % (100µM) Exp 2 (SARS-CoV-2 nsp14 MTase [1]; replicate experiment 2): −3%
